# Measured values: article PMC7301889 (Journal of computer-aided molecular design, 2019)
# Assay: Potentiometric
# Type: physicochemical
# Conditions: 1-octanol/water biphasic system, log P (mean ± SEM), octanol / ISA water, neutral species, 25.0 ± 0.5 °C, 150 mM KCl, mean ± SEM of at least three independent replicates
row,SMILES,logP
1,"Nc1ccc2c(c1)ncn2-c1ccccc1 [SM14, c1ccc(cc1)n2cnc3c2ccc(c3)N]",1.95 ± 0.03
2,"Clc1ccc(CNc2ncnc3ccccc23)cc1 [SM04, c1ccc2c(c1)c(ncn2)NCc3ccc(cc3)Cl]",3.98 ± 0.03
3,"Nc1ncnc2c1cnn2-c1ccccc1 [SM11, c1ccc(cc1)n2c3c(cn2)c(ncn3)N]",2.1 ± 0.04
4,"FC(F)(F)c1cccc(Nc2ncnc3ccccc23)c1 [SM02, c1ccc2c(c1)c(ncn2)Nc3cccc(c3)C(F)(F)F]",4.09 ± 0.03
5,"Cc1ccc2[nH]c(=O)c(CC(=O)O)c(-c3ccccc3)c2c1 [SM08, Cc1ccc2c(c1)c(c(c(=O)[nH]2)CC(=O)O)c3ccccc3]",3.1 ± 0.03

# Results, then the molecule that gave them:
row,logP,SMILES
1,3.03 ± 0.07,"COc1cccc(Nc2ncnc3ccccc23)c1 [SM09, COc1cccc(c1)Nc2c3ccccc3ncn2.Cl]"
2,3.07 ± 0.03,"Oc1ccc(-n2cnc3ccccc32)cc1 [SM15, c1ccc2c(c1)ncn2c3ccc(cc3)O]"
3,2.92 ± 0.04,"COc1cc2ncnc(Nc3cccc(C)c3)c2cc1OC [SM13, Cc1cccc(c1)Nc2c3cc(c(cc3ncn2)OC)OC]"
4,3.83 ± 0.03,"Clc1cccc(Nc2ncnc3ccccc23)c1 [SM12, c1ccc2c(c1)c(ncn2)Nc3cccc(c3)Cl.Cl]"
5,2.62 ± 0.01,"O=C(Nc1ccncc1)c1c(Cl)cccc1Cl [SM16, c1cc(c(c(c1)Cl)C(=O)Nc2ccncc2)Cl]"
